Test [1] has as its target human recombinant phosphodiesterase (PDE3A) (Homo sapiens (Human), UniProt Q14432). In words: Radiometric PDE3A assay. It is filed as biochemical. The following applies: [3H]-cAMP hydrolysis, 20 minutes at 30° C. The protocol:
Partially purified human recombinant phosphodiesterase (PDE3A) was obtained by cloning cDNA and expressing in S. frugiperda insect cells using a baculovirus expression system. Cells were harvested from culture by centrifuging at 400×g for 5 minutes. Cell pellet was resuspended in 20 ml of RIPA Buffer (150 mM NaCl, 10 mM Tris, 0.1% NP-40, pH8.3), 4 ml/200 ml of culture, plus protease inhibitors (100 μl/10 ml) and incubated on ice for 10-20 minutes then spun at 3500×g for 10 minutes at 4° C. Supernatant was kept and the pellet thrown away. Tritium-labeled cyclic AMP was hydrolysed to 5′-AMP by PDE3A. The 5′-AMP was then further hydrolysed to adenosine by nucleotidase in snake venom. An anion-exchange resin binds all charged nucleotides and leaves [3H]adenosine as the only labeled compound to be counted by liquid scintillation. The radiometric assay method is a modification of the two-step method of Thompson and Appleman [Biochemistry 10; 311-316; 1971], adapted for a 96 well plate format. 50 μl of diluted PDE3A was incubated with 50 μl of [3H]-CAMP (specific activity 25 Ci/mmol) and 11 μl of 50% DMSO (or compound dilution) for 20 minutes at 30° C. The enzyme was diluted in 20 mM Tris HCl pH7.4 (×2.2 final concentration) and [3H]-cAMP were diluted in 10 mM MgCl2, 40 mM Tris HCl pH 7.4 (×2.2 final concentration). Reactions were carried out in Greiner 96 deep well 1 ml master-block. The plates were centrifuged for 9 seconds before the 20 minutes incubation. The reaction was terminated by denaturing the PDE enzyme (at 70° C. for 2 minutes, plates were left to cool on ice for 10 minutes) after which 25 μl snake venom nucleotidase (225 ug/ml final concentration) was added and incubated for 10 minutes (at 30° C.), plates were centrifuged for 9 seconds before incubation. After incubation 200 μl Dowex resin (1×8, 200-400 mesh) was added and the plate was shaken for 20 minutes then centrifuged for 3 minutes at 1000×g. 50 μl of supernatant was removed and added to 200 μl of MicroScint-20 in white plates (Greiner 96-well Optiplate) and shaken for 30 minutes before reading on Perkin Elmer TopCount Scintillation Counter. GraphPad Prism™ was used to calculate the IC50 values using a sigmoidal dose response (variable slope). The analysis measures 4 parameters including the best fit values for the bottom and top fit of the curve, the hill slope value and the IC50 value.

In test [2] the target is first bromodomain of BRD4 (Homo sapiens (Human), UniProt O60885). As to the kind of experiment: Bromoscan binding assay BRD4 (1). The note with it: for Kd: Bromoscan, geometric mean where multiple measurements have been made; for Selectivity BRD4(2)/BRD4(1): ratio BRD4(2) Kd / BRD4(1) Kd. The procedure:
(§1) Compounds were assayed for binding affinity using bromoscan assays and a phosphodiesterase three assay.
(§2) Bromoscan assays were run by DiscoveRx Corporation. The relevant assay names are BRD4 (1) for the first bromodomain of BRD4 and BRD4 (2) for the second bromodomain of BRD4. Further Bromoscan assays covering other bromodomains may be employed to establish the selectivity profile of a compound of interest. To run the Bromoscan assay, a T7 phage strain displaying the relevant bromodomain was grown in parallel in 24-well blocks in an E. coli host derived from the BL21 strain. E. coli were grown to log-phase and infected with T7 phage from a frozen stock (multiplicity of infection=0.4) and incubated with shaking at 32° C. until lysis (90-150 minutes). The lysates were centrifuged (5,000×g) and filtered (0.2 μm) to remove cell debris. […] The liganded beads were blocked with excess biotin and washed with blocking buffer (SeaBlock (Pierce), 1% BSA (bovine serum albumin), 0.05% Tween 20, 1 mM DTT (dithiothreitol)) to remove unbound ligand and to reduce non-specific phage binding. […] Test compounds were prepared as 1000× stocks in 100% DMSO and subsequently diluted 1:10 in monoethylene glycol (MEG) to create stocks at 100× the screening concentration (resulting stock solution is 10% DMSO/90% MEG). The compounds were then diluted directly into the assays such that the final concentration of DMSO and MEG were 0.1% and 0.9%, respectively. All reactions were performed in polystyrene 96-well plates in a final volume of 0.135 ml. […] The bromodomain concentration in the eluates was measured by qPCR (quantitative real-time polymerase chain reaction). Binding constants (Kds) were calculated with a standard dose-response curve using the Hill equation: Response=Blackground+((Signal-Background)/(1+Kd^Hill Slope/Dose^Hill Slope)). The Hill Slope was set to −1. Curves were fitted using a non-linear least square fit with the Levenberg-Marquardt algorithm.

Test [3] deals with second bromodomain of BRD4 (Homo sapiens (Human), UniProt O60885). In words: Bromoscan binding assay BRD4 (2). The note with it: geometric mean where multiple measurements have been made. The procedure: as §1, §2

Molecules are shown by their SMILES.

Chain of human recombinant phosphodiesterase (PDE3A) (Q14432 whole entry): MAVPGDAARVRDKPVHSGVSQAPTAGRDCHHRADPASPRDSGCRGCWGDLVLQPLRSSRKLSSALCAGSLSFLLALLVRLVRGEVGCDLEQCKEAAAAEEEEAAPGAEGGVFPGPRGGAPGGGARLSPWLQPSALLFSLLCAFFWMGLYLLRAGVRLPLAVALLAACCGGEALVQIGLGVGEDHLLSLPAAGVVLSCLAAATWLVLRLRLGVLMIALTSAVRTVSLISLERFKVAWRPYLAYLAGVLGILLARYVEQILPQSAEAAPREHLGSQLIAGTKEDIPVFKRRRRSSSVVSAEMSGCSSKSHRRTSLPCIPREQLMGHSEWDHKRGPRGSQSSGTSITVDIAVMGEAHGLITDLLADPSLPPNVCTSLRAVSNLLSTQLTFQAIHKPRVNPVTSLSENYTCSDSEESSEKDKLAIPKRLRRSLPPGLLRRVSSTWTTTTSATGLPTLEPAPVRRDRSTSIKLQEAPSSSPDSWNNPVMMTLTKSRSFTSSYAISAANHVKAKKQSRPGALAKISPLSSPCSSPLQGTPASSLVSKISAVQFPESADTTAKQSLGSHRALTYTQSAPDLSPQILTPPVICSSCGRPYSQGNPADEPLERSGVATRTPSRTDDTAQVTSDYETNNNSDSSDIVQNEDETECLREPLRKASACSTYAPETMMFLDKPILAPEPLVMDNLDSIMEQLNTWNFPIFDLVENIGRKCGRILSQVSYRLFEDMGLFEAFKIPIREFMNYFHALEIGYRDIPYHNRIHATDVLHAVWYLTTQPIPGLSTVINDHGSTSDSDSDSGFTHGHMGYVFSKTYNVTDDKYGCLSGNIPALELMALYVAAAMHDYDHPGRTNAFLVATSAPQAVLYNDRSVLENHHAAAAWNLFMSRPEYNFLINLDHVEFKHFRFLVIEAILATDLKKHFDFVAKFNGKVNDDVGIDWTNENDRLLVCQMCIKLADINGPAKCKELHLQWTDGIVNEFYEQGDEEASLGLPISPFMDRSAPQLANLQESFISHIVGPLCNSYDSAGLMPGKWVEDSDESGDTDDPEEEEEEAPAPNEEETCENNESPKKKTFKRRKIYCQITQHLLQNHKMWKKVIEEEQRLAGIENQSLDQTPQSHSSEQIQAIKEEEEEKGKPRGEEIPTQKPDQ

In general, IC50 refers to the concentration needed to halve the response being measured. On to `COc1cc(NC(=O)c2cc3c(nc2N2C[C@H]4C[C@@H]2CO4)COC3)cc2c(C)cc(=O)[nH]c12` [Example 24, N-(8-methoxy-4-methyl-2-oxo-1H-quinolin-6-yl)-2-[(1R,4R)-2-oxa-5-azabicyclo[2.2.1]heptan-5-yl]-5,7-dihydrofuro[3,4-b]pyridine-3-carboxamide], for which the half-inhibitory concentration (IC50) in test [1] is over 10000 nM.
One may read the Kd as the concentration at which binding is half-saturated. Read a low Kd as a tighter complex. In the case of `COc1cc(NC(=O)c2cc3c(nc2N2CCC[C@H]2C)COC3)cc2c(C)cc(=O)[nH]c12` [Example 18, N-(8-methoxy-4-methyl-2-oxo-1H-quinolin-6-yl)-2-[(2R)-2-methylpyrrolidin-1-yl]-5,7-dihydrofuro[3,4-b]pyridine-3-carboxamide], in test [2], binding was characterised by a dissociation constant (Kd) of 12 nM and the “Selectivity BRD4(2)/BRD4(1)” value is 17. This compound also returned a Kd in test [3] of 200 nM.
In the case of `COc1cc(NC(=O)c2cc3c(nc2N2CCOCC2)CN(C(C)C)C3)cc2c(C)cc(=O)[nH]c12` [Example 35, 6-isopropyl-N-(8-methoxy-4-methyl-2-oxo-1H-quinolin-6-yl)-2-morpholino-5,7-dihydropyrrolo[3,4-b]pyridine-3-carboxamide], the Kd in test [2] was determined as 20 nM; in test [3], 600 nM. For the same compound, in test [2], the “Selectivity BRD4(2)/BRD4(1)” value was determined as 30.
Regarding `COc1cc(NC(=O)c2cc3c(nc2C2=CCCC2)COC3)cc2c(C)cc(=O)[nH]c12` [Example 3, 2-(cyclopenten-1-yl)-N-(8-methoxy-4-methyl-2-oxo-1H-quinolin-6-yl)-5,7-dihydrofuro[3,4-b]pyridine-3-carboxamide], in test [2], the Kd stood at 13 nM and the “Selectivity BRD4(2)/BRD4(1)” value was 62. The same compound registered a Kd in test [3] of 800 nM.
Consider `CCN(c1nc2c(cc1C(=O)Nc1cc(OC)c3[nH]c(=O)cc(C)c3c1)COC2)C(C)C` [Example 28, 2-[ethyl(isopropyl)amino]-N-(8-methoxy-4-methyl-2-oxo-1H-quinolin-6-yl)-5,7-dihydrofuro[3,4-b]pyridine-3-carboxamide], for which, in test [2], binding was put at a Kd of 33 nM and the “Selectivity BRD4(2)/BRD4(1)” value is 30. The affinity in test [3], expressed as Kd, was 1000 nM.
Take `Cc1cc(=O)[nH]c2c3c(c(NC(=O)c4cc5c(nc4N4CCOCC4)COC5)cc12)OCCO3` [Example 10, N-(7-methyl-9-oxo-3,10-dihydro-2H-[1,4]dioxino[2,3-h]quinolin-5-yl)-2-morpholino-5,7-dihydrofuro[3,4-b]pyridine-3-carboxamide]: in test [2], the Kd turned out to be 43 nM and the “Selectivity BRD4(2)/BRD4(1)” value is recorded as over 232. Moreover, the Kd in test [3] is over 10000 nM.
Take `COc1cc(NC(=O)c2cc3c(nc2N2C4CCCC2CC4)COC3)cc2c(C)cc(=O)[nH]c12` [Example 21, 2-(8-azabicyclo[3.2.1]octan-8-yl)-N-(8-methoxy-4-methyl-2-oxo-1H-quinolin-6-yl)-5,7-dihydrofuro[3,4-b]pyridine-3-carboxamide]: in test [2], binding was characterised by a dissociation constant (Kd) of 6 nM and the “Selectivity BRD4(2)/BRD4(1)” value turned out to be 233. Further, the Kd in test [3] was determined as 1400 nM.
Turning to `COc1cc(NC(=O)c2cc3c(nc2N2CCOCC2)COC3C)cc2c(C)cc(=O)[nH]c12` (stereo not shown) [Example 31, N-(8-methoxy-4-methyl-2-oxo-1H-quinolin-6-yl)-5-methyl-2-morpholino-5,7-dihydrofuro[3,4-b]pyridine-3-carboxamide], the Kd in test [2] is 22 nM; in test [3], 1000 nM. Further, in test [2], the “Selectivity BRD4(2)/BRD4(1)” value turned out to be 45.
On to `COc1cc(NC(=O)c2cc3c(nc2N2CC4CCOC4C2)COC3)cc2c(C)cc(=O)[nH]c12` (stereo not shown) [Example 19, 2-(2,3,3a,4,6,6a-hexahydrofuro[2,3-c]pyrrol-5-yl)-N-(8-methoxy-4-methyl-2-oxo-1H-quinolin-6-yl)-5,7-dihydrofuro[3,4-b]pyridine-3-carboxamide], for which, in test [2], the Kd was found to be 180 nM and the “Selectivity BRD4(2)/BRD4(1)” value is 31. Besides, the affinity in test [3], expressed as Kd, was 5600 nM.
Take `COc1c(F)c(NC(=O)c2cc3c(nc2N2CCOCC2)COC3)cc2c(C)cc(=O)[nH]c12` [Example 9, N-(7-fluoro-8-methoxy-4-methyl-2-oxo-1H-quinolin-6-yl)-2-morpholino-5,7-dihydrofuro[3,4-b]pyridine-3-carboxamide]: in test [2], binding was put at a Kd of 440 nM and the “Selectivity BRD4(2)/BRD4(1)” value came out at 17. Besides, binding in test [3] was put at a Kd of 7400 nM.
On to `COc1cc(NC(=O)c2cc3c(nc2N2CCC[C@@H]2C)COC3)cc2c(C)cc(=O)[nH]c12` [Example 25, N-(8-methoxy-4-methyl-2-oxo-1H-quinolin-6-yl)-2-[(2S)-2-methylpyrrolidin-1-yl]-5,7-dihydrofuro[3,4-b]pyridine-3-carboxamide], for which, in test [2], the Kd worked out at 150 nM and the “Selectivity BRD4(2)/BRD4(1)” value is reported as 30. In addition, in test [3], the Kd was 4500 nM.
Take `COc1cc(NC(=O)c2cc3c(nc2N2CCOCC2)CN(C)C3)cc2c(C)cc(=O)[nH]c12` [Example 32, N-(8-methoxy-4-methyl-2-oxo-1H-quinolin-6-yl)-6-methyl-2-morpholino-5,7-dihydropyrrolo[3,4-b]pyridine-3-carboxamide]: in test [2], the Kd amounted to 17 nM and the “Selectivity BRD4(2)/BRD4(1)” value was 18. In test [3], this compound came in with a Kd of 300 nM.
For `COc1cc(NC(=O)c2cc3c(nc2N2CCOCC2)CO[C@@H]3C)cc2c(C)cc(=O)[nH]c12` [Example 30, (5R)—N-(8-methoxy-4-methyl-2-oxo-1H-quinolin-6-yl)-5-methyl-2-morpholino-5,7-dihydrofuro[3,4-b]pyridine-3-carboxamide], in test [2], the Kd was 14 nM and the “Selectivity BRD4(2)/BRD4(1)” value was 86. The same compound came in with a Kd in test [3] of 1200 nM.
Consider `COc1cc(NC(=O)c2cc3c(nc2N2CCOCC2)CN(C2COC2)C3)cc2c(C)cc(=O)[nH]c12` [Example 33, N-(8-methoxy-4-methyl-2-oxo-1H-quinolin-6-yl)-2-morpholino-6-(oxetan-3-yl)-5,7-dihydropyrrolo[3,4-b]pyridine-3-carboxamide], for which, in test [2], the affinity, expressed as Kd, was 13 nM and the “Selectivity BRD4(2)/BRD4(1)” value is reported as 23. Besides, in test [3], the Kd came out at 300 nM.
Take `COc1cc(NC(=O)c2cc3c(nc2N2CC4COCC4C2)COC3)cc2c(C)cc(=O)[nH]c12` (stereo not shown) [Example 20, 2-(1,3,3a,4,6,6a-hexahydrofuro[3,4-c]pyrrol-5-yl)-N-(8-methoxy-4-methyl-2-oxo-1H-quinolin-6-yl)-5,7-dihydrofuro[3,4-b]pyridine-3-carboxamide]: the Kd in test [2] turned out to be 70 nM; in test [3], 3400 nM. In addition, the “Selectivity BRD4(2)/BRD4(1)” value in test [2] is 49.
Consider `Cc1cc(=O)[nH]c2c3c(c(NC(=O)c4cc5c(nc4N4CCOCC4)COC5)cc12)CCO3` [Example 8, N-(6-methyl-8-oxo-3,9-dihydro-2H-furo[3,2-h]quinolin-4-yl)-2-morpholino-5,7-dihydrofuro[3,4-b]pyridine-3-carboxamide], for which, in test [2], the affinity, expressed as Kd, was 56 nM and the “Selectivity BRD4(2)/BRD4(1)” value turned out to be 45. The same compound gave a Kd in test [3] of over 2500 nM.

The record behind these values is patent US20250382308A1, “COMPOUNDS ACTIVE TOWARDS BROMODOMAINS” (NUEVOLUTION A/S, priority 2022, published 2025).
